According to patent publication US5235039A, “Substrates for HIV protease” (Eli Lilly and Company, priority 1991, dated 1993):

Target: T1, HIV-1 protease (HIV-1 M:B_HXB2R, UniProt P04585)
T1 construct: enzyme solution in MES-ALB buffer
Experiment: HIV-1 protease inhibitor assay (particle concentration fluorescence, Pandex)
Type: biochemical
Settings: inhibitor at a concentration of about 7 μM; FIG. 1
Procedure: The modified decapeptide is dissolved in a suitable buffer at a pH between about 5 and about 6 to form a solution at a desirable concentration, e.g. about 1.5 μg/ml. A separate solution of the protease in the same buffer is prepared at a sufficient concentration of protease to hydrolyze all substrate. To each well of a round-bottom, 96-well plate, e.g. a polystyrene microtiter plate, is added the enzyme solution followed by a buffered solution of the inhibitor compound. The solution of the inhibitor may be diluted in 20% aqueous dimethylsulfoxide when necessary for solubility. The plates are allowed to stand for about one hour at about room temperature before the substrate solution is added to each well. […] Unbound fluorescence is removed by filtration and subsequent washing with buffer. Any bound fluorescence is detected by excitation at 485 nm and reading the resulting epifluorescence at 535 nm. The amount of fluorescence indicates the extent to which the enzymatic reaction is inhibited.
As described hereinabove the Pandex Plates used in the assay method are 96-well two-chamber plates (upper and lower chambers) wherein the chambers are separated by a […] pore size membrane. […] Any fluorescent marked cleavage fragment (unbound fluorescence) in the wells is washed from the well and out of the plate. […]

Ac-Nal-Pro-Phe-Val-Sta-Leu-Phe-NH2
percent inhibition of the protease: 100%
